The text below walks through data of publication PMC4303912, “A primary fish gill cell culture model to assess pharmaceutical uptake and efflux: Evidence for passive and facilitated transport” (Aquatic Toxicology (Amsterdam, Netherlands), 2015).

Data set [1] in a line: pH-dependent transport of propranolol. The class given is in vitro ADME, rainbow trout (Oncorhynchus mykiss). As to conditions: rainbow trout (Oncorhynchus mykiss); for Papp B→A at 6 h, 1 μg L^−1: 1 μg L^−1, read-out: Papp B:A (efflux permeability).
Data set [2] deals with DSI gill cell epithelium. Briefly: pH-dependent transport of propranolol. The class given is in vitro ADME, rainbow trout (Oncorhynchus mykiss). As to conditions: pH from 8 to 9.5; asymmetrical; 6 h.
For data set [3], the system named is DSI gill cell epithelium. Briefly: Concentration-dependent uptake of propranolol, in vitro basal concentrations. The class given is in vitro ADME, rainbow trout (Oncorhynchus mykiss). Particulars: for In vitro concentration (basal compartment): 6 h apical exposure, asymmetrical. On the procedure:
Radioactivity was analyzed as previously described in Section 2.3.
This was calculated using the mammalian fish leverage model, whereby the predicted plasma concentration can be described by multiplying the environmental concentration by the blood to water partitioning coefficient ([Huggett et al., 2004]) using the Fitzsimmons model for the partitioning of compounds between blood and water ([Fitzsimmons et al., 2001]).

On the set-up of data set [4]: method as in AstraZeneca, 2014. Particulars: experimentally measured values, ref AstraZeneca, 2014, cited from earlier work.
Details of data set [5]: method as in Owen et al., 2009. Particulars: ref Owen et al., 2009, cited from earlier work; for In vivo plasma concentration: 40 days exposure.
Data set [6] relates to DSI gill cell epithelium. Briefly: Concentration equilibrium transport assays (CETA). Particulars: for CETA, percentage of initial concentration apical versus basal: 1 μg L^−1 both sides, over 48 h.
The nature of data set [7]: Bidirectional transport assays (BTA), apparent permeability coefficients and transport ratios. As to conditions: rainbow trout (Oncorhynchus mykiss).
For data set [8], the system named is DSI gill cell epithelium. The description is as above. As to conditions: for difference between Papp A:B and Papp B:A: 6 h; for time-dependent BTA, uptake versus efflux (% of donor concentration): over 48 h.
Data set [9] is described as follows: Membrane (paracellular) permeability with 14C-mannitol. The class given is in vitro ADME, rainbow trout (Oncorhynchus mykiss). As to conditions: for Papp A→B at 24 h, 0.43 nM: rainbow trout (Oncorhynchus mykiss).
The conditions of data set [10]: cited from earlier work.
For data set [11], the system named is DSI gill cell epithelium. As to conditions: for Uptake TR (Papp A:B/Papp B:A): rainbow trout (Oncorhynchus mykiss).
A further data set in a line: in vitro. As to conditions: rainbow trout (Oncorhynchus mykiss).
Data set [12] has as its system propranolol uptake across DSI gill cell epithelium. The data set can be described thus: Inhibition of the uptake of propranolol by transporter inhibitors. Particulars: 400 nM inhibitor, 48 h.
Setting [13] is: nominal water concentration 10 μg L^−1.
Where [14] appears, read: nominal water concentration 100 μg L^−1.
Where [15] appears, read: nominal water concentration 1000 μg L^−1.
Setting [16] is: nominal water concentration 10,000 μg L^−1.

Structures are written as SMILES. Like-named read-outs stand apart in the source and are kept apart here. Marks after values point to notes of the source that are not given here.

With `CC(C)NCC(O)COc1cccc2ccccc12` (centres unmarked) [Propranolol, propranolol], the Papp A→B at 6 h, 1 μg L^−1 in data set [1] (apical freshwater pH 6, asymmetrical, 1 μg L^−1, read-out: Papp A:B (uptake permeability)) was determined as 0.4 ± 0.03 ×10⁻⁶ cm/s; in [7], 1.7 ± 0.2 ×10⁻⁶ cm/s. Further, the Papp B→A – broadly, how fast a substance crosses the layer from the basolateral side – at 6 h, 1 μg L^−1 in data set [1] (apical freshwater pH 6, asymmetrical) was 2.8 ± 0.1 ×10⁻⁶ cm/s; in data set [1] (apical freshwater pH 8, asymmetrical), 0.8 ± 0.1 ×10⁻⁶ cm/s; in data set [7], 1.1 ± 0.02 ×10⁻⁶ cm/s; in data set [7] (pH 7.7), 0.8 ± 0.1 ×10⁻⁶ cm/s. The “effect of pH increase on Papp” value in the data set on DSI gill cell epithelium [2] is on record as “without significant effect”. In the data set on DSI gill cell epithelium [3], the “in vitro basolateral concentration as average share of actual plasma concentration” value is recorded as 16%. For the same compound, the “in vitro basolateral concentration as average share of predicted plasma concentration” value in the data set with DSI gill cell epithelium [3] is 6%. For the same compound, the “slope of [rate] versus [concentration] (flux)” value in the data set on DSI gill cell epithelium [3] (0.014–10,000 μg L^−1, 6 h, linear regression, n = 54, r^2 = 0.974) was determined as 0.052. In the data set on DSI gill cell epithelium [3] (n = 21, r^2 = 0.966), the “slope of [in vitro] versus [actual] plasma concentration” value is reported as 0.155. The “slope of [in vitro] versus [predicted] plasma concentration” value in the data set with DSI gill cell epithelium [3] (n = 21, r^2 = 0.995) is 0.063. Besides, the “In vitro concentration (basal compartment)” value in the data set with DSI gill cell epithelium [3] (nominal water concentration 0.1 μg L^−1) was 0.04 (±0.002) ng mL^−1; in the data set with DSI gill cell epithelium [3] (nominal water concentration 1.0 μg L^−1), 0.10 (±0.001) ng mL^−1; in the data set with DSI gill cell epithelium [3] (setting [13]) it was 0.72 (±0.02) ng mL^−1; in the data set with DSI gill cell epithelium [3] (setting [14]) it was 7.5 (±0.3) ng mL^−1; in the data set on DSI gill cell epithelium [3] (setting [15]), 79.5 (±7.3) ng mL^−1; in the data set on DSI gill cell epithelium [3] (setting [16]) it was 812 (±158) ng mL^−1. In the data set on DSI gill cell epithelium [3] (nominal water concentration 100,000 μg L^−1), the “In vitro concentration (basal compartment)” value is 5545 (±313) ng mL^−1. Moreover, the “log Kow” value in [4] (pH 7.4) is given as 1.12 ^*. The “In vivo plasma concentration” value in data set [5] (nominal water concentration 1.0 μg L^−1, pooled plasma sample) is 0.94 ^* (n/a) ng mL^−1; in [5] (setting [13]), 3.3 (±0.4) ng mL^−1; in data set [5] (setting [14]), 16 (±7) ng mL^−1; in data set [5] (setting [15]), 280 (±116) ng mL^−1; in [5] (setting [16]), 5200 (±1333) ng mL^−1. Further, the “actual plasma concentrations as share of predicted” value in [5] was 59%. In addition, in the data set on DSI gill cell epithelium [6] (CETA), the “facilitated transport as share of the total transport” value is listed as “approximately 10%”. Also, the “CETA, percentage of initial concentration apical versus basal” value (from here on “CETA, percentage”) is “increased apical to basal transport” in the data set on DSI gill cell epithelium [6] (asymmetrical conditions) and “significantly more than the basal” in the data set with DSI gill cell epithelium [6] (symmetrical conditions). The “difference between Papp A:B and Papp B:A” value with DSI gill cell epithelium [8] (asymmetrical conditions) is reported as “significantly higher”. The “time-dependent BTA, uptake versus efflux (% of donor concentration)” value in the data set with DSI gill cell epithelium [8] (asymmetrical conditions) was “taken up across the gill cell surface than effluxed”.
For the compound `OC[C@@H](O)[C@@H](O)[C@H](O)[C@H](O)CO` [Mannitol, mannitol], the Papp at 24 h, 0.43 nM in data set [9] (pH 7.7, cell free inserts, TER 0 Ω cm^2 (blanked), apical freshwater, read-out: Mannitol flux (permeability)) was determined as 3.6 ± 0.2 ×10⁻⁶ cm/s. In addition, the Papp A→B at 24 h, 0.43 nM in data set [9] (pH 7.7, DSI epithelia with TER 200–1000 Ω cm^2, apical freshwater, read-out: mannitol permeability) is 1.1 ± 1.1 ×10⁻⁶ cm/s; in data set [9] (pH 7.7, DSI epithelia with TER >2 kΩ cm^2, apical freshwater, read-out: mannitol permeability (Papp A:B)) it was 0.1 ± 0.01 ×10⁻⁶ cm/s.
In the case of `CNC(=C[N+](=O)[O-])NCCSCc1ccc(CN(C)C)o1` [Ranitidine, ranitidine], the pKa – broadly, the pH at which an ionisable group is half protonated – in data set [10] is recorded as 8.08. Further, the “facilitated transport as share of the total transport, efflux” value in the data set with DSI gill cell epithelium [6] (CETA, efflux) was “around 5%”. In the data set on DSI gill cell epithelium [6] (symmetrical conditions), the “CETA, percentage” value was “no significant differences”. For the same compound, the efflux ratio (usually the permeability from basolateral to apical divided by that in the opposite direction, in the common usage) at 6 h, 1 μg L^−1 in [7] is 0.83. In the data set with DSI gill cell epithelium [8] (asymmetrical conditions), the “difference between Papp A:B and Papp B:A” value is recorded as “no significant differences”; the “time-dependent BTA, uptake versus efflux (% of donor concentration)” value is “taken up across the gill cell surface than effluxed”. The “time-dependent BTA, uptake versus efflux (% of donor concentration)” value with DSI gill cell epithelium [8] (symmetrical conditions) is recorded as “greater efflux transport”.
For `CC(C)(C)NCC(O)c1cc(O)cc(O)c1` (centres unmarked) [Terbutaline, terbutaline], in [4] (no pH given), the “log Kow” value is given as 1.29. Besides, the “CETA, percentage” value in the data set on DSI gill cell epithelium [6] (asymmetrical conditions) is on record as “no signs of facilitated transport”; in the data set with DSI gill cell epithelium [6] (symmetrical conditions), “no significant differences”. Also, the efflux ratio at 6 h, 1 μg L^−1 in [7] was 1.09; in data set [7] (pH 7.7), 1.13. In the data set with DSI gill cell epithelium [8] (asymmetrical conditions), the “difference between Papp A:B and Papp B:A” value is on record as “no significant differences”. In addition, in the data set with DSI gill cell epithelium [8] (asymmetrical conditions), the “time-dependent BTA, uptake versus efflux (% of donor concentration)” value was “slightly greater uptake than efflux”.
As to `COc1ccc(CC(C)NCC(O)c2ccc(O)c(NC=O)c2)cc1` (centres unmarked) [Formoterol, formoterol], the “difference between Papp A:B and Papp B:A” value with DSI gill cell epithelium [11] is “no significant differences”. Further, the “time-dependent BTA, uptake versus efflux (% of donor concentration)” value in the data set on DSI gill cell epithelium [11] is “slightly greater uptake than efflux”. For the same compound, the results for the “Uptake TR (Papp A:B/Papp B:A)” value in the data set on DSI gill cell epithelium [11] and in the data set on DSI gill cell epithelium [11] (pH 7.7) were 1.08 and 0.97, respectively. In addition, in data set [10] (acidic), the “pKa (acidic)” value is 7.9. In [10] (basic), the “pKa (basic)” value is on record as 9.2. Besides, the efflux ratio was determined as 0.93 in the data set “in vitro” and 1.03 in “in vitro” (pH 7.7). Further, the “CETA, percentage” value in the data set with DSI gill cell epithelium [6] (asymmetrical conditions) is given as “no signs of facilitated transport”; with DSI gill cell epithelium [6] (symmetrical conditions), “more in the apical than basal”.
Consider `CN(C)C(=O)CCSC(SCCC(=O)O)c1cccc(/C=C/c2ccc3ccc(Cl)cc3n2)c1` (centres unmarked) [MK571], for which the “decrease in propranolol permeability compared to the control” value in data set [12] (apical application) and in data set [12] (basal application) was “approximately 40%” throughout.
`CN(C)CCCN1c2ccccc2CCc2ccccc21` [Imipramine, imipramine]: the pKa result in data set [10] is on record as “around 9.5”. In the data set on DSI gill cell epithelium [6] (CETA), the “facilitated transport as share of the total transport” value is “approximately 10%”. For the same compound, the entries for the “CETA, percentage” value with DSI gill cell epithelium [6] (asymmetrical conditions) and in the data set on DSI gill cell epithelium [6] (symmetrical conditions) were “increased apical to basal transport” and “increased basal to apical facilitated transport”, respectively.
Consider `COCCc1ccc(OCC(O)CNC(C)C)cc1` (centres unmarked) [Metoprolol, metoprolol], for which the “CETA, percentage” value in the data set with DSI gill cell epithelium [6] (asymmetrical conditions) is “no signs of facilitated transport”. The “CETA, percentage” value in the data set with DSI gill cell epithelium [6] (symmetrical conditions) is reported as “no significant differences”. Further, in the data set on DSI gill cell epithelium [8] (asymmetrical conditions), the “difference between Papp A:B and Papp B:A” value was “no significant differences”; the “time-dependent BTA, uptake versus efflux (% of donor concentration)” value is given as “slightly greater uptake than efflux”.
